Assays:
EpiSC-derived OPCs = assay: In vitro phenotypic screening of OPCs (MBP staining, high-content imaging); type: cell-based, mouse; details: Mus musculus, 72 h, percentage of MBP+ oligodendrocytes, 3 days, 0.5 nM to 1000 nM; read-out: OPC EC50
Outline: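 EpiSC-derived mouse OPCs seeded at 150,000/cm^2 on laminin in N2B27 without growth factors, treated 3 days at 37° C. with compound (8 points, 1000 nM to 0.5 nM). Fixed cells stained for MBP and DAPI and imaged; percentage of MBP+ oligodendrocytes fitted by Hill equation for EC50.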

human EBP = human EBP (Homo sapiens (Human), UniProt Q15125); assay: Competition binding assay (SPA, [3H]-Ifenprodil) to determine compound affinity to EBP; details: [3H]-Ifenprodil 10 nM, HEK293 membrane overexpressing human EBP, Ki=IC50/(1+[L]/Kd); read-out: hEBP SPA Ki
Chain of human EBP (Q15125 whole entry): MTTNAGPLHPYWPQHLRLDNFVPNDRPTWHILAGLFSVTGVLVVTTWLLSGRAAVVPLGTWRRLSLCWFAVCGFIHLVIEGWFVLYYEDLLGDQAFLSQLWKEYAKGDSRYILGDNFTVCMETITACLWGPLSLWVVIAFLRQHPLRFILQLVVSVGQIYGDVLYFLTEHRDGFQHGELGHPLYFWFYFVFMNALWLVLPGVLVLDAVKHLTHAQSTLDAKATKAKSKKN
Protocol: Membrane preparation: To examine compound binding affinity to EBP, human EBP was overexpressed in human embryonic kidney 293 cells. Cell pellet was lysed in 10 times weight binding buffer (50 mM Tris, 5 mM MgCl2, 0.1 mM EDTA, lx protease inhibitor cocktail, pH 7.5) on ice by using a dounce homogenizer. The solution was centrifuged at 25,000 g for 50 min at 4° C. The membrane pellet was re-suspended in binding buffer and run through a 25 5/8 gauge needle. After checking the concentration by Bradford assay, the whole cell membrane solution was adjusted to 20 mg/mL and stored at −80° C.
This binding solution was centrifuged at 400 g for 5 minutes to collect the bead/membrane mixture. After re-suspending the pellet in binding buffer at the same calculated volume with 0.01% BSA (Sigma A1933), the bead/membrane mixture was added in 384-well low-binding surface plate (PerkinElmer Cat #6057480) at 25 μl/well. Radioligand at different concentrations with and without the non-radio-labeled same ligand 5 uM (for nonspecific and total signal, respectively) was added to bring final volume to 50 µl/well with DMSO concentration at 0.1%. At equilibrium (3 hours after ligand addition), radiometric signal CPM was counted by using a Microbeta2 microplate counter (Perkinelmer).
Competition binding assay to determine compound affinity: The same conditions of the radioligand Kd study were used for compound single dose percentage inhibition and equilibrium dissociation constant Ki examinations, except 50 nL compound DMSO stock was pre-added in 384-well low-binding surface plate (PerkinElmer Cat #6057480) by Echo 550 (Labcyte) to reach the final concentration for single dose test at 1 uM, and dose response test from 0.06 nM to 5 uM (8 dose, 5 times dilution). A pre-incubated bead/membrane mixture was added in compound plate at 0.3 mg beads and […] membrane per well. […] At equilibrium (3 hours after ligand addition), radiometric signal was counted as described above. The percentage inhibition of compound at each testing concentration was calculated by normalizing each condition's CPM readout to full block (5 uM non-radiolabeled ligand) and non-block (DMSO) control conditions. Compound binding inhibition IC50 was determined by nonlinear regression fitting of percentage inhibition plot against compound concentration. Compound Ki was calculated from the equation Ki=IC50/(1+[L]/Kd), which [L] was radioligand concentration used in assay. All tests had N bigger or equal to 2.

EC50 (EpiSC-derived OPCs) [nM] | Ki (human EBP) [nM] | Compound
37 | 23 | Cc1cc(C(F)(F)F)ncc1[C@H]1CC[C@@H](N2CCC3(C2)CS(=O)(=O)C3)CC1 [Compound 21A, 6-((1s,4s)-4-(4-Methyl-6-(trifluoromethyl)pyridin-3-yl)cyclohexyl)-2-thia-6-azaspiro[3.4]octane 2,2-dioxide]
87 | 58 | Cn1nc(C(F)(F)F)cc1[C@H]1CC[C@H](N2CCC3(CC2)CS(=O)(=O)C3)CC1 [Compound 25B, 7-((1r,4r)-4-(1-methyl-3-(trifluoromethyl)-1H-pyrazol-5-yl)cyclohexyl)-2-thia-7-azaspiro[3.5]nonane 2,2-dioxide]
39 | 37 | O=S1(=O)CC2(CCN(C3CCN(c4ccc(C(F)(F)F)cn4)CC3)C2)C1 [Compound 6, 6-(1-(5-(trifluoromethyl)pyridin-2-yl)piperidin-4-yl)-2-thia-6-azaspiro[3.4]octane 2,2-dioxide]
240 | 30 | O=S1(=O)CC2(CCN([C@H]3CC[C@@H](c4ccc(C(F)(F)F)nc4)CC3)C2)C1 [Compound 14B, 6-((1s,4s)-4-(6-(Trifluoromethyl)pyridin-3-yl)cyclohexyl)-2-thia-6-azaspiro[3.4]octane 2,2-dioxide]
37 | 28 | O=S1(=O)CC2(CCN([C@H]3CC[C@H](c4cc(C(F)(F)F)nn4C4CC4)CC3)C2)C1 [Compound 12A, 6-((1r,4r)-4-(1-Cyclopropyl-3-(trifluoromethyl)-1H-pyrazol-5-yl)cyclohexyl)-2-thia-6-azaspiro[3.4]octane 2,2-dioxide]
60 | 24 | O=S1(=O)CC2(CCN(C3CCN(c4ncc(C(F)(F)F)cc4F)CC3)C2)C1 [Compound 32, 6-(1-(3-fluoro-5-(trifluoromethyl)pyridin-2-yl)piperidin-4-yl)-2-thia-6-azaspiro[3.4]octane 2,2-dioxide]
53 | 33 | CC(C)n1nc(-c2cncc(OC(F)F)c2)cc1[C@H]1CC[C@@H](N2CCC3(C2)CS(=O)(=O)C3)CC1 [Compound 33B, (Cis)-6-(4-(3-(5-(Difluoromethoxy)pyridin-3-yl)-1-isopropyl-1H-pyrazol-5-yl)cyclohexyl)-2-thia-6-azaspiro[3.4]octane 2,2-dioxide]
5.1 | 20 | O=S1(=O)CC2(CCN([C@H]3CC[C@H](c4ccc(C(F)(F)F)cc4)CC3)C2)C1 [Compound 3A, 6-((1r,4r)-4-(4-(trifluoromethyl)phenyl)cyclohexyl)-2-thia-6-azaspiro[3.4]octane 2,2-dioxide]
100 | 26 | O=S1(=O)CC2(CCN([C@H]3CC[C@@H](c4cc(C(F)(F)F)nn4C4CCC4)CC3)C2)C1 [Compound 23A, 6-((1s,4s)-4-(1-Cyclobutyl-3-(trifluoromethyl)-1H-pyrazol-5-yl)cyclohexyl)-2-thia-6-azaspiro[3.4]octane 2,2-dioxide]
39 | 45 | Cc1nc(C(F)(F)F)ccc1N1CCC(N2CCC3(C2)CS(=O)(=O)C3)CC1 [Compound 29, 6-(1-(2-methyl-6-(trifluoromethyl)pyridin-3-yl)piperidin-4-yl)-2-thia-6-azaspiro[3.4]octane 2,2-dioxide]
22 | 32 | O=S1(=O)CC2(CCN([C@H]3CC[C@@H](c4cc(C(F)(F)F)nn4C4CC4)CC3)CC2)C1 [Compound 40A, 7-((1r,4r)-4-(1-cyclopropyl-3-(trifluoromethyl)-1H-pyrazol-5-yl)cyclohexyl)-2-thia-7-azaspiro[3.5]nonane 2,2-dioxide]
44 | 25 | CCn1nc(C(F)(F)F)cc1[C@H]1CC[C@H](N2CCC3(C2)CS(=O)(=O)C3)CC1 [Compound 15, 6-((1r,4r)-4-(1-Ethyl-3-(trifluoromethyl)-1H-pyrazol-5-yl)cyclohexyl)-2-thia-6-azaspiro[3.4]octane 2,2-dioxide]

Further lines, the compound ahead of its results:

Compound | EC50 (EpiSC-derived OPCs) [nM] | Ki (human EBP) [nM]
Cn1nc(C(F)(F)F)cc1[C@H]1CC[C@@H](N2CC[C@]3(CCS(=O)(=O)C3)C2)CC1 (single isomer, unassigned) [38A*] | 200 | 27
O=S1(=O)CC2(CCN([C@H]3CO[C@@H](c4ccc(C(F)(F)F)cc4)C3)C2)C1 (stereo in doubt) [19A*, 6-((3R,5R)-5-(4-(Trifluoromethyl)phenyl)tetrahydrofuran-3-yl)-2-thia-6-azaspiro[3.4]octane 2,2-dioxide] | 140 | 27
O=S1(=O)CC2(CCN([C@H]3CCCN(c4ccc(C(F)(F)F)cc4)C3)C2)C1 (single isomer, unassigned) [22B*] | 110 | 70
O=S1(=O)CC2(CCN([C@@H]3CO[C@H](c4ccc(C(F)(F)F)cc4)C3)C2)C1 (stereo in doubt) [19C*, 6-((3S,5S)-5-(4-(Trifluoromethyl)phenyl)tetrahydrofuran-3-yl)-2-thia-6-azaspiro[3.4]octane 2,2-dioxide] | 270 | 34
CC(C)n1cc(C(F)(F)F)nc1[C@H]1CC[C@H](N2CCC3(C2)CS(=O)(=O)C3)C1 (single isomer, unassigned) [20A*] | > 1000 | 280
CC(C)n1cc(C(F)(F)F)nc1[C@H]1CC[C@@H](N2CCC3(C2)CS(=O)(=O)C3)C1 (single isomer, unassigned) [20C*] | 660 | 270
CC(C)n1nc(C(F)(F)F)cc1[C@@H]1CC[C@H](N2CCC3(C2)CS(=O)(=O)C3)C1 (single isomer, unassigned) [10C*] | 11 | 29
CC(C)n1nc(C2CC2)nc1[C@H]1CC[C@H](N2CCC3(C2)CS(=O)(=O)C3)C1 (single isomer, unassigned) [18B*, 6-(3-(3-cyclopropyl-1-isopropyl-1H-1,2,4-triazol-5-yl)cyclopentyl)-2-thia-6-azaspiro[3.4]octane 2,2-dioxide] | 390 | 210
Cn1nc(C(F)(F)F)cc1[C@H]1CC[C@@H](N2CC[C@@]3(CCS(=O)(=O)C3)C2)CC1 (single isomer, unassigned) [38B*] | 400 | 24
O=S1(=O)CC2(CCN([C@@H]3CCCN(c4ccc(C(F)(F)F)cc4)C3)C2)C1 (single isomer, unassigned) [22A*] | 9.5 | 34
CCn1nc(-c2ccc(C(F)(F)F)nc2)nc1[C@H]1CC[C@@H](N2CCC3(C2)CS(=O)(=O)C3)CC1 [36B*, 6-((1s,4s)-4-(1-ethyl-3-(6-(trifluoromethyl)pyridin-3-yl)-1H-1,2,4-triazol-5-yl)cyclohexyl)-2-thia-6-azaspiro[3.4]octane 2,2-dioxide] | 72 | 57
Cn1nc(C(F)(F)F)cc1[C@H]1CC[C@H](N2CCC3(C2)CS(=O)(=O)C3)CC1 [Compound 2B, 6-((1r,4r)-4-(1-methyl-3-(trifluoromethyl)-1H-pyrazol-5-yl)cyclohexyl)-2-thia-6-azaspiro[3.4]octane 2,2-dioxide] | 48 | 20
CC(C)n1nc(C2CC2)nc1[C@H]1CC[C@@H](N2CCC3(C2)CS(=O)(=O)C3)C1 (single isomer, unassigned) [18D*, 6-(3-(3-cyclopropyl-1-isopropyl-1H-1,2,4-triazol-5-yl)cyclopentyl)-2-thia-6-azaspiro[3.4]octane 2,2-dioxide] | 430 | 270
